pEC50: −log10 of the molar value. Read-outs that look alike come from different tables or passages of the source.
What was measured:
Neuro2A cells = Neuro2A cells that extended neurites, with GGTI-298 (Example 18); format: cell-based; conditions: 0.1-1 μM; vehicle 0.0-0.20
Source text: After differentiation was induced, cells that extended neurites were counted.

Rap1 = assay: Prenylation of Rap1 in Neuro2A cells, western blotting; format: cell-based, mouse; conditions: 100 nM; with GGTI-298; percentage of control (GGTI only)
How it was run: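 Mouse Neuro2A cells in DMEM/10% FBS were treated with compound for 24 h, then GGTI-298 was added for a further 24 h. Un-prenylated and total Rap1 were quantified by western blot, normalized to GAPDH; the un-prenylated/total ratio was expressed as percent of GGTI-only control, mean of two biological repeats.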

Sprague-Dawley rats = assay: Kainic acid induced neurodegeneration and seizure behaviors in rats (Examples 20, 21); format: in vivo, rat; conditions: oral
Source text: Seizure behaviors were observed and scored (Ref. R. J. Racine, Modification of seizure activity by electrical stimulation: II. Motor seizure, Electroencephalogr. Clin. […] Modifications were made for the methods). Brain tissues of rats were sectioned on histology slides, and neurons in hippocampus tissues were stained by Nissl. Neurons in dentate gyrus tissues damaged by Kainic acid were quantified. The Memantine composition used in comparison refers to a commercially available NMDA receptor […]. […] Seizure behaviors were observed and scored (Ref. R. J. Racine, Modification of seizure activity by electrical stimulation: II. Motor seizure, Electroencephalogr. Clin. […] Modifications were made for the methods). Brain tissues of rats were sectioned on histology slides, and neurons in hippocampus tissues were stained by Nissl. Neurons damaged by Kainic acid and behavior scores were quantified.

[1] = tested on: Mouse Neuro2A neuroblastoma cells; assay: Neuro2A cells with neurites after GGTI-298 (Example 16); format: cell-based; conditions: 10 μM
Method: Mouse Neuro2A neuroblastoma cells were cultured in DMEM supplemented with 10% FBS for 24 hrs. […] Then differentiation was induced by retinoic acid in DMEM supplemented with 2% FBS. The cell culture was incubated with a Geranylgeranyl Transferase inhibitor, GGTI-298. After 24 hrs incubation, cells with neurites were counted.

[2] = tested on: Rat primary motor neurons; assay: Axon extension of rat primary motor neurons; format: cell-based; conditions: 72 hrs; read-out: EC50 (cells extending axons)
Method: Rat primary motor neurons were isolated from embryonic spinal cords in accordance with the method of Henderson et al.; J Cohen and G P Wilkin (ed.), Neural Cell Culture, (1995) p69-81 which is herein incorporated by reference in its entirety. Briefly, spinal cords were dissected from day 15 embryo (E15) and incubated in a trypsin solution, and followed by DNase treatment to release spinal cord cells from tissue fragments. The cell suspension was centrifuged to remove tissue fragments. Then motor neurons were enriched by density gradient centrifugation.
Motor neurons were cultured in serum-free neurobasal medium containing insulin, forskolin, 3-isobutyl-1-methylxanthine, neurotrophic factors, Bovine serum albumin, selenium, transferrin, putrescine, progesterone and B27 supplement in tissue culture plate coated with poly-ornithine and laminin.
Rat primary motor neurons were prepared and cultured as described in Example 13. […] The cells extending axons were counted in five different fields for each treatment after 72 hrs. Percentage of positive cells relative to total cells in the same magnification field was calculated and the results were expressed as means+/−standard deviations, n=5.

[3] = tested on: Murine neuro2A neuroblastoma cells; assay: Neurite outgrowth of neuro2A cells with GGTI-298 (Example 30); format: cell-based, mouse; conditions: for Protection % / Median Counts (cells with neurite outgrowth) / ratio of counts relative to no inhibition: CNS-102/CNS-103 experiment; for Median Counts (cells with neurite outgrowth): no inhibition 60.3, PBS 18.5
Method: Differentiation was induced and cells incubated with geranylgeranyl transferase I inhibitor, GGTI-298. After 24 h digital images were taken and neurite outgrowth was quantified. The comparisons of the neuroprotective effect of these three compounds are shown below.
The estimated mean log10 counts, from five replicate wells for each treatment group were calculated by PROC GLM in SAS assuming a pooled estimate of variation.
The estimated mean log 10 counts from five replicate wells for each treatment group were calculated by PROC GLM in SAS assuming a pooled estimate of variation.
Differences in mean log(counts) between treatments for each concentration were calculated using PROC GLM in SAS. The p-value given is for the comparison of the estimated difference to zero, the expected difference value for no treatment effect. The anti-log of the differences represent the estimated ratio of counts (relative effect on inhibition) and are tabulated below along with the lower and upper 95% confidence intervals.

HSP70 = HSP70 expression in neuro2A cells, western blot; format: cell-based, mouse; conditions: for HSP70 western signal (absence of compounds = 1.00): 48 hours, GGTI-298
Method: Differentiation was induced and cells incubated with geranylgeranyl transferase I inhibitor, GGTI-298. Cells were harvested and lysates were prepared and analyzed by western blot for HSP70 and HSP90. Western signals in the absence of the compounds were normalized as 1.00.

[4] = tested on: Mouse neuroblastoma Neuro2A cells; assay: Rescue of amyloid-beta oligomer induced cytotoxicity in Neuro 2a cells (CellTiter-Glo); format: cell-based; conditions: mouse/rat NG108-15, N2a, A-beta (O) together with compound 48 hr, normalized to A-beta (O) treated only, read-out: % viability vs. untreated
Method: Preparation of amyloid-beta oligomer (A-beta (O)): Synthetic wild type A-beta (1-42) was purchased from American Peptide, and first dissolved with hexafluoroisopropanol (HFIP), then dried in the blowing tissue culture hood overnight to form a film in the eppendorf tube. The A-beta peptide film was first resuspended with DMSO to a concentration of 5 mM, further diluted with DMEM containing N2 supplement (Invitrogen) to achieve a concentration of 100 μM, and then sonicated in room temperature water bath for 10 minutes. The 100 μM peptide solution was then incubated at 4° C. for 24 hr and thoroughly vortexed before applied to cells.
Mouse neuroblastoma Neuro2A cells were plated in 96-well plates and cultured in DMEM supplemented with 10% FBS for 24 hr. […] At the end of incubation, cells were harvested and subjected to viability assay using CellTiter-Glo Luminescent Cell Viability Assay Kit (Promega). […] Compound ID numbers in table refer to structures in Table 1 and Table 2.

[5] = Kp (ratio of AUCbrain to AUCplasma) of GGA in rat; format: in vivo; conditions: brain, 4 h, 6 h, 8 h, and 10 h time points
[6] = Katsuno et al., Proc. Natl. Acad. Sci. USA 2003; cited from earlier work
[7] = In-vivo PK of GGA oral formulations in rat; conditions: plasma; for bioavailability: read-out: oral bioavailability (% F); for half-life: read-out: t½ (converted)
Method: PK Parameters were calculated from noncompartmental analysis (NCA) model using WinNonlin software and the linear/log trapezoidal method.
Parameters that requires 1z: Terminal Half-Life (t1/2)=ln(2)/lz. Calculated using Lambda_z method to find best fit. If necessary, the concentration-time points were manually selected for use in the calculation. Bolded-italicized concentrations indicate points used for calculation.

[8] = GGA in 3% Hydroxypropyl Cellulose (Mn=10,262) aqueous suspension
[9] = GGA in 3% Hydroxypropyl Cellulose (Mn=100,000) aqueous suspension
[10] = GGA in 5% Gum Arabic aqueous suspension
[11] = GGA in 5% Gum Arabic+3% Hydroxypropyl Cellulose (Mn=10,262) aqueous suspension
[12] = GGA in 5% Gum Arabic+3% Hydroxypropyl Cellulose (Mn=100,000) aqueous suspension

CC(=O)CC/C=C(/C)CC/C=C(\C)CC/C=C(\C)CCC=C(C)C [CNS-103]
Mean of cell numbers (cells that extended neurites) (Neuro2A cells): 0.20-0.45 Arbitrary units | unprenylated/total RAP1 (%) (Rap1): 96% | Mean of Hippocampus CA3 Neurons Damaged (Sprague-Dawley rats; 12 mg/Kg rat): 8.16 Arbitrary units | Mean of Hippocampus CA3 Neurons Damaged (Sprague-Dawley rats; 25 mg/Kg rat): 10.64 Arbitrary units | Mean of cell numbers (cells with neurites) [1]: 0.195 Arbitrary units | pEC50 [2]: 8.02 | Protection % ([3]; 10 nM): 19.6% | Median Counts (cells with neurite outgrowth) ([3]; 10 nM): 26.7 | ratio of counts relative to no inhibition ([3]; 10 nM): 0.443 | Protection % ([3]; 100 nM): 25.8% | Median Counts (cells with neurite outgrowth) ([3]; 100 nM): 29.3 | ratio of counts relative to no inhibition ([3]; 100 nM): 0.486 | Protection % ([3]; 1000 nM): 24.4% | Median Counts (cells with neurite outgrowth) ([3]; 1000 nM): 28.7 | ratio of counts relative to no inhibition ([3]; 1000 nM): 0.476 | Protection % ([3]; 10000 nM): −5.3% | Median Counts (cells with neurite outgrowth) ([3]; 10000 nM): 16.3 | ratio of counts relative to no inhibition ([3]; 10000 nM): 0.270 | maximum protection ([3]; CNS-102/CNS-103 experiment (FIG. 4B)): ~26% | HSP70 western signal (absence of compounds = 1.00) (HSP70; 100 nM): 1.00 | HSP70 western signal (absence of compounds = 1.00) (HSP70; 1 μM): 1.07 | HSP70 western signal (absence of compounds = 1.00) (HSP70; 10 μM): 0.99 | induction of HSP70 expression (HSP70; various concentrations): failed to induce expression of HSP70

CC(C)=CCC/C(C)=C/CC/C(C)=C/CCC(=O)C(C)C [Compound 101]
viability at 1 µM [4]: 126%

CC(=O)CC/C=C(\C)CC/C=C(\C)CC/C=C(\C)CCC=C(C)C [GGA, geranylgeranyl acetone]
Kp [5]: 0.08 to 0.11 | concentration of GGA required to exert a cytoprotective effect [6]: more than 600 mg per kg per day | Tmax [7, 8]: 9.33 h | bioavailability [7, 8]: 35% | half-life [7, 8]: 18.7 h | Tmax [7, 9]: 8.66 h | bioavailability [7, 9]: 41.8% | half-life [7, 9]: 3.13 h | Tmax [7, 10]: 7.33 h | bioavailability [7, 10]: 37.3% | half-life [7, 10]: 3.43 h | Tmax [7, 11]: 13.3 h | bioavailability [7, 11]: 36.5% | half-life [7, 11]: 6.73 h | Tmax [7, 12]: 5.33 h | bioavailability [7, 12]: 58% | half-life [7, 12]: 10.2 h

Source: US20150025077A1 (COYOTE PHARMACEUTICALS, INC., priority 2012, published 2015)
